Data: ChEMBL document CHEMBL4765481, “Sialyltransferase Inhibitors Suppress Breast Cancer Metastasis” (J Med Chem, 2021)
pIC50: −log10 of the molar value. The source made the active and inactive calls. The rule behind the calls is not given here.

How the values were obtained:
Rattus norvegicus = species: Rattus norvegicus; test: Selectivity ratio of inhibition of rat alpha-2,3-O-ST3GALI at 500 uM to IC50 for inhibition of rat alpha-2,3-N-ST3GALIII
[1] = Selectivity ratio of IC50 for of inhibition of rat alpha-2,3-O-ST3GALI to IC50 for inhibition of human alpha-2,6-ST6GAL1
[2] = Toxicity in BALB/c mouse xenografted with luciferase-tagged human MDA-MB-231 cells at 10 mg/kg/3 days, ip measured after 8 weeks by blood tests; assay type: organism-based; conditions: in vivo, 1344 h
MDA-MB-231 [3] = test: Inhibition of Sialyltransferase in human MDA-MB-231 cells assessed as reduction in FAK Tyr925 phosphorylation level at 10 to 20 uM incubated for 48 hrs by immunoblot analysis; assay type: cell-based; conditions: dose 10-20 µM
MDA-MB-231 [4] = test: Inhibition of Sialyltransferase in human MDA-MB-231 cells assessed as reduction in FAK Tyr576/577 phosphorylation level at 10 to 20 uM incubated for 48 hrs by immunoblot analysis; assay type: cell-based; conditions: dose 10-20 µM
Danio rerio [5] = species: Danio rerio; test: Antiangiogenic activity in transgenic zebrafish embryos assessed as suppression of intersegmental vessels formation at 20 uM measured at 30 hrs postfertilization by fluorescence microscopy; assay type: functional, organism-based
[6] = Toxicity in transgenic zebrafish embryos assessed as effect on gross morphology at 20 uM measured at 30 hrs postfertilization by fluorescence microscopy; design: species or system Danio rerio; conditions: in vivo
MDA-MB-231 [7] = test: Antiangiogenesis activity against luciferase-tagged human MDA-MB-231 cells xenografted in BALB/c mouse assessed as reduction in number of vessels surrounding tumor nodules by measuring CD31 expression at 10 mg/kg/3 days, ip measured after 8 weeks by immunostaining; assay type: functional, organism-based
[8] = molecular target: T1, Beta-galactoside alpha-2,6-sialyltransferase 1 (Homo sapiens, UniProt P15907); test: Inhibition of human alpha-2,6-ST6GAL1 assessed as reduction in sialylated-product formation using Gal-beta1-4GlcNac and CMP-NeuSAc incubated for 15 mins by reverse-phase HPLC analysis
T1 sequence (P15907 whole entry): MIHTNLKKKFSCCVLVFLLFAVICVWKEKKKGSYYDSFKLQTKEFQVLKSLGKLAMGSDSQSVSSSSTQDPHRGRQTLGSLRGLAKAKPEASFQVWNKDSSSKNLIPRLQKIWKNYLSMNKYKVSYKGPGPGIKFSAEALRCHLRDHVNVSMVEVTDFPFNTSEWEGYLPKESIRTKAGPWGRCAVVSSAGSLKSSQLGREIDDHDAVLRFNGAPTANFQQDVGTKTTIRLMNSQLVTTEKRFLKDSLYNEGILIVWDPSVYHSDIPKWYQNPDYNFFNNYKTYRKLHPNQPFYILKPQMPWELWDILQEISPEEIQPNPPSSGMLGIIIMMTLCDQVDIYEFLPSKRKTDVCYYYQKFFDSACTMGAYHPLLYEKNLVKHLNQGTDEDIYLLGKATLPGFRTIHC

[9] = molecular target: T2, Sialyltransferase ST3Gal-I (Rattus norvegicus) (UniProt Q6H8N0); test: Inhibition of rat alpha-2,3-O-ST3GALI assessed as reduction in sialylated-product formation at 1 mM using p-nitrophenyl T-antigen and CMP-NeuSAc incubated for 15 mins by reverse-phase HPLC analysis relative to control
T2 sequence (whole entry): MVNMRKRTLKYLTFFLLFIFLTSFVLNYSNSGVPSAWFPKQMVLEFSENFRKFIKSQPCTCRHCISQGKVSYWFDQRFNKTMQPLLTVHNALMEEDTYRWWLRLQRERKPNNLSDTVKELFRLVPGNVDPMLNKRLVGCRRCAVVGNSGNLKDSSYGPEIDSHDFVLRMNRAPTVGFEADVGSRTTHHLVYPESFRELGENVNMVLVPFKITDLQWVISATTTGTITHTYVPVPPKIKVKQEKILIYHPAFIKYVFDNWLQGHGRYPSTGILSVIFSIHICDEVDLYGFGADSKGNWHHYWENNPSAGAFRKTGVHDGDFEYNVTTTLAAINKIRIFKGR

MDA-MB-231 [10] = test: Antiangiogenesis activity against luciferase-tagged human MDA-MB-231 cells xenografted in BALB/c mouse assessed as reduction in cell proliferation by measuring Ki67 expression at 10 mg/kg/3 days, ip measured after 8 weeks by immunostaining; assay type: functional, organism-based
[11] = molecular target: T3, CMP-N-acetylneuraminate-beta-1,4-galactoside alpha-2,3-sialyltransferase (Rattus norvegicus, UniProt Q02734); test: Inhibition of rat alpha-2,3-N-ST3GALIII assessed as reduction in sialylated-product formation using Gal-beta1-4Glc and CMP-NeuSAc incubated for 1.5 hrs by reverse-phase HPLC analysis
T3 sequence (Q02734 whole entry): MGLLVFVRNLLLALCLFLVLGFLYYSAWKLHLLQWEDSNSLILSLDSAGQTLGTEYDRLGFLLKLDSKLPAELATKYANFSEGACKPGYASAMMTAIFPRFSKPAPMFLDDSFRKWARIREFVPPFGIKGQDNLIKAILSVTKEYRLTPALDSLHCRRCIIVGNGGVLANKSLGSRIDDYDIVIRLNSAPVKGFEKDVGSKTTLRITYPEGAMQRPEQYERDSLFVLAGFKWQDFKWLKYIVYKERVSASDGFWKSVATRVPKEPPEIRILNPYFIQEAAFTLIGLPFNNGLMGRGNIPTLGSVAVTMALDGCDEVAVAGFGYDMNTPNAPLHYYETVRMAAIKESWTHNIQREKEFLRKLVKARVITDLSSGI

MDA-MB-231 [12] = test: Antitumor activity against luciferase-tagged human MDA-MB-231 cells xenografted in BALB/c mouse assessed as induction of tumor suppression at 10 mg/kg/3 days, ip measured after 8 weeks; assay type: functional, organism-based
MDA-MB-231 [13] = test: Antitumor activity against luciferase-tagged human MDA-MB-231 cells xenografted in BALB/c mouse assessed as reduction in metastatic nodules in lymph node at 10 mg/kg/3 days, ip measured after 8 weeks by H and E staining based histological analysis; assay type: functional, organism-based
MDA-MB-231 [14] = test: Inhibition of Sialyltransferase in human MDA-MB-231 cells assessed as reduction in paxillin Tyr118 phosphorylation level at 10 to 20 uM incubated for 48 hrs by immunoblot analysis; assay type: cell-based; conditions: dose 10-20 µM
MDA-MB-231 [15] = test: Inhibition of Sialyltransferase in human MDA-MB-231 cells assessed as reduction in IkappaB-alpha Ser32 phosphorylation level at 10 to 20 uM incubated for 48 hrs by immunoblot analysis; assay type: cell-based; conditions: dose 10-20 µM
Danio rerio [16] = species: Danio rerio; test: Antiangiogenic activity in transgenic zebrafish embryos assessed as suppression of caudal vein plexus formation at 20 uM measured at 30 hrs postfertilization by fluorescence microscopy; assay type: functional, organism-based
MDA-MB-231 [17] = test: Inhibition of Sialyltransferase in human MDA-MB-231 cells assessed as decrease p-talin-1 association with integrins beta1 and beta 3 after 48 hrs by immunofluorescence and coimmunoprecipitation assay; assay type: cell-based
[18] = molecular target: T2, Sialyltransferase ST3Gal-I (Rattus norvegicus); test: Inhibition of rat alpha-2,3-O-ST3GALI assessed as reduction in sialylated-product formation at 500 uM using p-nitrophenyl T-antigen and CMP-NeuSAc incubated for 15 mins by reverse-phase HPLC analysis relative to control
MDA-MB-231 [19] = test: Inhibition of serum-induced cell migration of human MDA-MB-231 cells incubated for 16 hrs by Boyden chamber assay; assay type: functional, cell-based; conditions: MDA-MB-231, 16 h
[20] = Toxicity in human MDA-MB-231 cells assessed as cell survival at >60 uM relative to control; assay type: cell-based; conditions: read-out: Survival

C[C@H](CCC(=O)OCCOCCOCCN=[N+]=[N-])[C@H]1CC[C@H]2[C@@H]3CC[C@@H]4C[C@H](OC(=O)[C@H](CC(=O)O)Nc5ccc([N+](=O)[O-])c6nonc56)CC[C@]4(C)[C@H]3CC[C@]12C
Selectivity ratio (Rattus norvegicus): > 287 | Ratio IC50 [1]: > 139 | Activity [2]: Non-Toxic | inhibition (MDA-MB-231 [3]): Dose-dependent effect | inhibition (MDA-MB-231 [4]): Dose-dependent effect | Activity (Danio rerio [5]): Active | Activity [6]: Non-Toxic | Activity (MDA-MB-231 [7]): Active | pIC50 [8]: 5.44 | inhibition [9]: 60% | Activity (MDA-MB-231 [10]): Active | pIC50 [11]: 5.76 | Activity (MDA-MB-231 [12]): Active | Activity (MDA-MB-231 [13]): Active | inhibition (MDA-MB-231 [14]): Dose-dependent effect | inhibition (MDA-MB-231 [15]): Active | Activity (Danio rerio [16]): Active | inhibition (MDA-MB-231 [17]): Dose-dependent effect | inhibition [18]: 0% | pIC50 (MDA-MB-231 [19]): 4.97 | viability [20]: > 90%
